# Experimental data reported in US10125135B2, “Chemical compounds” (AstraZeneca AB, priority 2016, dated 2018).
# How the values were obtained:
# [1] = Human plasma protein binding, equilibrium dialysis (RED); assay type: in vitro ADME; conditions: dialysis for 18 hours
# Description: Human Plasma Protein Binding
# The automated equilibrium dialysis assay in human plasma uses the RED (Rapid Equilibrium Dialysis) Device and sample handling. The assay generally runs over two to three days including delivery of results. After dialysis for 18 hours, plasma and buffer samples are prepared for analysis by liquid chromatography and mass spectrometry. Samples are generally tested in singlicates and quantified by LC/MSMS by using a 7-point calibration curve in plasma. The compounds are pooled together in plasma pools up to 10 compounds. Three reference compounds are used in each run, Propranolol, Metoprolol and Warfarin. Warfarin is used as a control in each pool and Propranolol and Metoprolol are placed randomly in each run. An in-house Excel macro is used for preparation of files for the robot and the mass spectrometer and also used for the calculations of fraction unbound (fu %) in plasma.
# [2] = target: ERα receptor in MCF-7 human ductal carcinoma breast cell line (Homo sapiens (Human), UniProt P03372); experiment: MCF-7 ER down regulation assay (immuno-fluorescence); assay type: cell-based; conditions: MCF-7 cells, 18-22 hours incubation; read-out: ER down regulation IC50 value
# Chain of ERα receptor in MCF-7 human ductal carcinoma breast cell line (P03372 whole entry): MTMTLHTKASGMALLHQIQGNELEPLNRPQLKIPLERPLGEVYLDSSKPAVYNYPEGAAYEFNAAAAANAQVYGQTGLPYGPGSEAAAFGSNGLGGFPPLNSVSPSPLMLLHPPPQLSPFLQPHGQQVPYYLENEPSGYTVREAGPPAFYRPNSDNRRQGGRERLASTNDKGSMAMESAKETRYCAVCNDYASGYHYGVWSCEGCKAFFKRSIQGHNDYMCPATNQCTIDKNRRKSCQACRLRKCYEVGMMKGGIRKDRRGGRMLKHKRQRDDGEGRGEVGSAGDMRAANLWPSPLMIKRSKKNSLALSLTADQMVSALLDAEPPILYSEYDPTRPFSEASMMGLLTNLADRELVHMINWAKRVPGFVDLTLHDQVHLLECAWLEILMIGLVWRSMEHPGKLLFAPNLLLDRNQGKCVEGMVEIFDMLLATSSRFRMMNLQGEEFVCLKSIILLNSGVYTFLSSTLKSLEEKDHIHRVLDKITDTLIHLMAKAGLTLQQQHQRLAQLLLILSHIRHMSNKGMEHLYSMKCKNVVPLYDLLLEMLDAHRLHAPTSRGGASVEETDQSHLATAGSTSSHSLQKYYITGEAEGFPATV
Compound,Human plasma protein binding (% free) [1] [% free],DC50 [2] [nM]
"COc1cc(OCCN2CC(CF)C2)ccc1[C@@H]1c2ccc3[nH]ncc3c2C[C@@H](C)N1CC(C)C [Example 9, (6S,8R)-6-(4-(2-(3-(fluoromethyl)azetidin-1-yl)ethoxy)-2-methoxyphenyl)-7-isobutyl-8-methyl-6,7,8,9-tetrahydro-3H-pyrazolo[4,3-f]isoquinoline]",52,0.5
"C[C@@H]1Cc2c(ccc3[nH]ncc23)[C@@H](c2ccc(OCCN3CC(CF)C3)cn2)N1CC(F)F [Example 51, (6S,8R)-7-(2,2-difluoroethyl)-6-(5-(2-(3-(fluoromethyl)azetidin-1-yl)ethoxy)pyridin-2-yl)-8-methyl-6,7,8,9-tetrahydro-3H-pyrazolo[4,3-f]isoquinoline]",49,0.54
"COc1cc(OCCN2CC(CF)C2)ccc1[C@@H]1c2ccc3[nH]ncc3c2C[C@@H](C)N1CC(C)(C)F [Example 5, (6S,8R)-7-(2-fluoro-2-methylpropyl)-6-(4-(2-(3-(fluoromethyl)azetidin-1-yl)ethoxy)-2-methoxyphenyl)-8-methyl-6,7,8,9-tetrahydro-3H-pyrazolo[4,3-f]isoquinoline]",6.2,0.16
"C[C@@H]1Cc2c(ccc3[nH]ncc23)[C@@H](c2ccc(OCCN3CC(CF)C3)cn2)N1CC(F)(F)F [Example 49, (6S,8R)-6-(5-(2-(3-(fluoromethyl)azetidin-1-yl)ethoxy)pyridin-2-yl)-8-methyl-7-(2,2,2-trifluoroethyl)-6,7,8,9-tetrahydro-3H-pyrazolo[4,3-f]isoquinoline]",23,0.21
"C[C@@H]1Cc2c(ccc3[nH]ncc23)[C@@H](c2ccc(OCCN3CC(CF)C3)cn2)N1CC1(F)CC1 [Example 8, (6S,8R)-7-((1-fluorocyclopropyl)methyl)-6-(5-(2-(3-(fluoromethyl)azetidin-1-yl)ethoxy)pyridin-2-yl)-8-methyl-6,7,8,9-tetrahydro-3H-pyrazolo[4,3-f]isoquinoline]",34,0.39
"COc1cc(OCCN2CC(CF)C2)ccc1[C@@H]1c2ccc3[nH]ncc3c2C[C@@H](C)N1CC1(F)CC1 [Example 6, (6S,8R)-7-((1-fluorocyclopropyl)methyl)-6-(4-(2-(3-(fluoromethyl)azetidin-1-yl)ethoxy)-2-methoxyphenyl)-8-methyl-6,7,8,9-tetrahydro-3H-pyrazolo[4,3-f]isoquinoline]",21,0.13
